Measured values taken from patent US20230028880A1, “CD38-BINDING AGENTS AND USES THEREOF” (Biohaven Therapeutics Ltd., priority 2019, published 2023).
“And” between values parts separate entries of the source, which are not always exact repeats. Identical values can stand only once. “Also recorded” adds a separate entry of the source.

What was measured:
Daudi cells = assay: Ternary binding assay: recruitment of PE-labeled human IgG1k to Daudi cells (flow cytometry, MFI); assay type: cell-based; details: duplicate columns
Method in brief: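 Daudi cells, 100,000 per well, were suspended in flow buffer (1% BSA, 0.5 mM EDTA, PBS) containing 11.1 ug/mL PE-labeled human IgG1k and incubated with ½-log compound dilutions (8–12 concentrations) for 30 min at 37 °C. After two washes with 0.5% Tween 20 buffer, mean fluorescence was read by flow cytometry and fitted with a four-parameter variable-slope model.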

[1] = tested on: NK cells (CIML and non-CIML); assay: CIML NK cell fratricide assay; assay type: cell-based
Description: PBMC isolation: Leukopheresis product from a donor with body mass index (BMI) between 19-25, under 50 years old, not on immuno-suppressive drugs for at least 2 weeks with an estimated PBMC cell count of >10^10 was obtained from Key Biologics (subject ID 20982200) and transported at ambient temperature. Leukopheresis bag was wiped down with 70% EtOH, a small slit was made and contents were pipetted off into tubes. Leukopak contents were diluted 1:1 with PBS without Ca++/Mg++ and 20 ml of this mixture was layered on top of 25 mL of Ficoll. Tubes were then centrifuged at 400 g for 30 minutes without brakes. PBMCs were harvested from the interface into separate tubes, and tubes were filled to 50 mL with PBS. Cells were centrifuged for 10 min at 120 g to get rid of platelets. Supernatant was poured off and cells were re-suspended in RPMI 10% FBS at a concentration of 7-10×10^6 cells/ml. Cells were cultured overnight at 37 C in a 5% CO2 atmosphere until NK cell isolation.
NK cell isolation: PBMC were centrifuged at 400 g for 10 min and re-suspended in EasySep buffer. NK cells were isolated using NK cell isolation kits from […] Technologies according to kit's manufacturers' instructions. NK cell purity and phenotype was assessed by trypan Blue and flow cytometry using the following antibody cocktail: anti-CD56PE, CD3 APC, and viability was determined using staining with Trypan Blue exclusion dye, and by flow cytometry using Near Infra-Red Fixable viability dye (Thermo Fisher).
CIML NK cell generation: Isolated NK cells were re-suspended at 2×10^6 cells/ml in XVIVO 10% Human Serum and the following concentrations IL-15 (50 ng/ml), IL-12 (10 ng/ml), IL-18 (50 ng/ml) for 12 to 18 hrs. Cells were harvested and tested for purity and viability by Trypan Blue staining and by Flow Cytometry using Near Infra-Red Fixable viability dye (Thermo Fisher), CD3 APC (Biolegend) and CD56 PE (Biolegend).
The stock was then serially diluted in 100% DMSO to achieve 1000× concentrations to be used in the experiment. The 100% DMSO compound stock was then added to a tube and media was added to a volume of 1000 ul per 1 ul of compound and vortexed for 1 minute to ensure a homogenous mixture.
Similarly, NK cell pellets were re-suspended in Daratumumab control antibody solutions (a range of 3 ug/ml to 0.01 ug/ml in PBS 5% HSA). Resulting NK cell suspensions were aliquoted at 55 ul/well of a 96 wellv-bottom plate and were incubated for 2 hrs at 37° C. in a 5% CO2 atmosphere.

SMILES: CCCCC[C@@H]1NC(=O)[C@H](CCCNC(=N)N)NC(=O)[C@H](C)NC(=O)CSC[C@@H](C(=O)NCCOCCOCCOCCOCCOCCOCCn2nnc3c2CCC2C(CC3)C2COC(=O)N2CCC(C(=O)NCC(=O)N[C@H](CCC(=O)N[C@H](CCC(=O)N[C@H](CCC(=O)O)C(=O)N[C@H](CCC(=O)N[C@H](CCC(=O)NCC(=O)NCC(=O)N[C@@H](CC(=O)O)C(=O)N[C@H]3CSSC[C@@H](C(=O)N[C@H](C(=O)O)[C@@H](C)O)NC(=O)[C@H](Cc4c[nH]c5ccccc45)NC(=O)[C@H](C(C)C)NC(=O)[C@H](CC(C)C)NC(=O)[C@H](CCC(=O)O)NC(=O)CNC(=O)[C@H](CC(C)C)NC(=O)[C@H](Cc4c[nH]cn4)NC(=O)[C@H](Cc4c[nH]c5ccccc45)NC(=O)[C@H](C)NC3=O)C(=O)O)C(=O)O)C(=O)O)C(=O)O)CC2)NC(=O)[C@H](CC(=O)O)NC(=O)[C@H](CCCCC)NC(=O)[C@H](Cc2ccc(-c3ccccc3)cc2)NC(=O)[C@H](CC(C)C)NC(=O)[C@H](C(C)C)NC(=O)CNC(=O)[C@H](CC(=O)O)NC(=O)[C@H](Cc2c[nH]cn2)NC(=O)[C@H](Cc2ccc(O)cc2)NC1=O (stereo partly drawn) [I-17]
- MFI, recruitment of PE-labeled human IgG1k to Daudi cells (Daudi cells; compound 0.03 nM): 2516 and 2391
- MFI, recruitment of PE-labeled human IgG1k to Daudi cells (Daudi cells; compound 0.1 nM): 2322 and 2622
- MFI, recruitment of PE-labeled human IgG1k to Daudi cells (Daudi cells; compound 0.3 nM): 2387 and 2457
- MFI, recruitment of PE-labeled human IgG1k to Daudi cells (Daudi cells; compound 1 nM): 3272 and 2451
- MFI, recruitment of PE-labeled human IgG1k to Daudi cells (Daudi cells; compound 3 nM): 2516 and 2680
- MFI, recruitment of PE-labeled human IgG1k to Daudi cells (Daudi cells; compound 10 nM): 7119 and 4086
- MFI, recruitment of PE-labeled human IgG1k to Daudi cells (Daudi cells; compound 30 nM): 3869 and 5244
- MFI, recruitment of PE-labeled human IgG1k to Daudi cells (Daudi cells; compound 100 nM): 7575 and 6333
- MFI, recruitment of PE-labeled human IgG1k to Daudi cells (Daudi cells; compound 300 nM): 7514 and 8562
- MFI, recruitment of PE-labeled human IgG1k to Daudi cells (Daudi cells; compound 1000 nM): 10015 and 9697
- MFI, recruitment of PE-labeled human IgG1k to Daudi cells (Daudi cells; compound 3000 nM): 9069 and 9922
- NK cell fratricide / toxicity ([1]; 2 hr incubation, up to the highest doses (FIG. 5)): no apparent NK cell fratricide was detected; also recorded: low toxicity
- increase in the percentage of dead NK cells ([1]; CIML NK cells, 2 hours post-incubation, daratumumab 3 ug/ml or 20.1 nM, I-17 +/-IVIG): no increase
- increase in dead NK cells (I-17 IvIG vs DMSO IVIG control) ([1]; non-CIML NK cells, 2 h, I-17 25 uM with IVIG 500 ug/ml): 0.93%
- increase in dead NK cells over DMSO treated control ([1]; non-CIML NK cells, 2 h, I-17 at 25 uM vs DMSO control): 1.7%
